# System: ryr1b mutants
# Assay: Body angle measurement after 20 days of treatment
# Type: in vivo, zebrafish (Danio rerio)
# Experimental: In FIG. 10A, body angles of ryr1b mutants after 20 days of NIF treatment (10.0 μg/mL) are corrected and statistically indistinguishable from wild-type controls. […] Angles were measured by first drawing/extending straight lines between the eyes of the larva as well as along the midline of the trunk (shown by dotted red lines). The angle of intersection was determined using Adobe Photoshop CS3 software (WT-DMSO: 179.1±0.9°, n=6; WT-NIF: 176.8±1.1°, n=6; ryr1b-DMSO: 142.6±6.2°, n=11; ryr1b-NIF: 174.4±2.0°, n=4). Significance was determined by a one-way ANOVA (F=13.60, P<0.0001), followed by pairwise Tukey's HSD post hoc tests. […] Three independent trials were performed with larvae from three different clutches, examining a total of 14-20 wild-type and ryr1b larvae from both DMSO- and NIF-treated groups. Genotypes of individual embryos were confirmed by genomic PCR following the study. Significance was determined by a one-way ANOVA (F=10.03, P=0.0009), followed by pairwise Tukey's HSD post hoc tests. […] One representative 20-minute time interval within the recording period is shown.
# This bending is likely a consequence of skeletal muscle weakness, and may be analogous to neck and trunk flexor weakness observed in human patients with MmD (FIG. 10A). To determine if NIF could correct this abnormality, larvae were treated with the compound from 1 to 20 dpf. After 20 days, body angles were measured as the angle of intersection between two lines, one drawn between the eyes of each larva and one drawn along the trunk midline. […] These improvements in morphology reflect long-term strengthening of ryr1b skeletal muscles as a result of exposure to NIF.
smiles,measurement,setting,value
O=C(N/N=C/c1ccc([N+](=O)[O-])o1)c1ccc(O)cc1 [Nifuroxazide],"body angle, wild-type larvae","20 days of treatment, 10.0 μg/mL, WT, n=6",176.8±1.1 °
same,"body angle, ryr1b mutants","20 days of treatment, 10.0 μg/mL, ryr1b, n=4, ryr1b-DMSO 142.6±6.2",174.4±2.0 °
same,body angles of treated ryr1b mutants,treated from 1 to 20 dpf,significantly increased and statistically indistinguishable from unaffected controls

# — patent US10973912B2, “Treatment for myopathy” (Children's Medical Center Corporation, priority 2015, dated 2021)
